Values quoted from earlier work as cited in patent US20070042451A1, “Glycine decarboxylase complex as a herbicidal target” (BASF Aktiengesellschaft, priority 2003, published 2007).

Tested on: glycine decarboxylase complex
Settings: Navarre and Wolpert 1995

Substance: victorine
- in vitro inhibition of the GDC activity: inhibition of the GDC activity
